Molecular target: T1, Axl (Homo sapiens, UniProt P30530+Q14393)
T1 construct: extracellular and trans-membrane domain of Axl fused to IFN-γR1 intracellular domain; with Gas6
Experiment: Gas6-induced hAxl/IFN-γR1 CHO reporter (pSTAT1) inhibition; sAxl-Gas6 pull-down partially inhibited
Format: cell-based

T1 sequence (P30530 26-472 limits assumed): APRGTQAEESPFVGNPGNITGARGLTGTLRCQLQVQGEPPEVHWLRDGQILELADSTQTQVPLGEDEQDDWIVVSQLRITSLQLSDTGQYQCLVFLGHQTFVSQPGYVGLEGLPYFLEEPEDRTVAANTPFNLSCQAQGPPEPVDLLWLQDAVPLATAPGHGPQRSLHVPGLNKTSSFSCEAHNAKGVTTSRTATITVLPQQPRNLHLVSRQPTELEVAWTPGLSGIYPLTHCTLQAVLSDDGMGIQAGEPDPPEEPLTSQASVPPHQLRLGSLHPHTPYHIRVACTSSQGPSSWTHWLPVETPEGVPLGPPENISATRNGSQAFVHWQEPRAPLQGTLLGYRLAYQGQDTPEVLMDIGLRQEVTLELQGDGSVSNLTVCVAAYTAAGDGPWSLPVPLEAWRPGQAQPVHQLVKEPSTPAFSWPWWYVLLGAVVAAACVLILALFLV
T1 sequence (Q14393 31-678): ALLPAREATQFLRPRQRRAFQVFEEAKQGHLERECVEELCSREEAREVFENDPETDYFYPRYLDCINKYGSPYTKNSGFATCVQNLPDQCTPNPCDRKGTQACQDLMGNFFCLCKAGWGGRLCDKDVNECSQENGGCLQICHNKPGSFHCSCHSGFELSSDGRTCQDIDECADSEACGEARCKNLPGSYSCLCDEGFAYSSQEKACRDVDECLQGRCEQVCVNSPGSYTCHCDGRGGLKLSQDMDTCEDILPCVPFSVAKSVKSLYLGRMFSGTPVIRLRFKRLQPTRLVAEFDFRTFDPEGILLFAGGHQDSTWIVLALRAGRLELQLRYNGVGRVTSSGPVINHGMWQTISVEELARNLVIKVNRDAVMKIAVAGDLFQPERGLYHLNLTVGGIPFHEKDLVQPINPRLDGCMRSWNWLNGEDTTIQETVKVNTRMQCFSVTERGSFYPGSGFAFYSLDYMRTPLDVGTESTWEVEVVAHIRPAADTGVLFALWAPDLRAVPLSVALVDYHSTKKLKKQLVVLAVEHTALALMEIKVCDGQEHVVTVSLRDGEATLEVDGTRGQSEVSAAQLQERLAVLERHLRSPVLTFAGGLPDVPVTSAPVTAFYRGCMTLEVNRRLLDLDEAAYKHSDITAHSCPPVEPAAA

- IC50: low micromolar
Compound: Cc1noc(C)c1CSc1ccccc1C(=O)N1CCN(c2cccc(C(F)(F)F)c2)CC1 [RU-302]

Reference: PMC5341070, “Small molecule inhibitors block Gas6-inducible TAM activation and tumorigenicity” (Scientific Reports, 2017)
